Paper PMC9030254, “Target Hopping from Protein Kinases to PXR: Identification of Small-Molecule Protein Kinase Inhibitors as Selective Modulators of Pregnane X Receptor from TüKIC Library” (Cells, 2022)

Legend:
Experiment in all cases: Kinase profiling
Assay type in all cases: biochemical
[1] = target: T1, FGR (Homo sapiens, UniProt P09769)
T1 construct: purchased ProQinase (Freiburg, Germany)
Experimental: (§1) The analysis was performed by ProQinase (Freiburg, Germany).

[2] = target: T2, DAPK1 (Homo sapiens, UniProt P53355)
T2 construct: purchased ProQinase (Freiburg, Germany)
T2 sequence (P53355 whole entry): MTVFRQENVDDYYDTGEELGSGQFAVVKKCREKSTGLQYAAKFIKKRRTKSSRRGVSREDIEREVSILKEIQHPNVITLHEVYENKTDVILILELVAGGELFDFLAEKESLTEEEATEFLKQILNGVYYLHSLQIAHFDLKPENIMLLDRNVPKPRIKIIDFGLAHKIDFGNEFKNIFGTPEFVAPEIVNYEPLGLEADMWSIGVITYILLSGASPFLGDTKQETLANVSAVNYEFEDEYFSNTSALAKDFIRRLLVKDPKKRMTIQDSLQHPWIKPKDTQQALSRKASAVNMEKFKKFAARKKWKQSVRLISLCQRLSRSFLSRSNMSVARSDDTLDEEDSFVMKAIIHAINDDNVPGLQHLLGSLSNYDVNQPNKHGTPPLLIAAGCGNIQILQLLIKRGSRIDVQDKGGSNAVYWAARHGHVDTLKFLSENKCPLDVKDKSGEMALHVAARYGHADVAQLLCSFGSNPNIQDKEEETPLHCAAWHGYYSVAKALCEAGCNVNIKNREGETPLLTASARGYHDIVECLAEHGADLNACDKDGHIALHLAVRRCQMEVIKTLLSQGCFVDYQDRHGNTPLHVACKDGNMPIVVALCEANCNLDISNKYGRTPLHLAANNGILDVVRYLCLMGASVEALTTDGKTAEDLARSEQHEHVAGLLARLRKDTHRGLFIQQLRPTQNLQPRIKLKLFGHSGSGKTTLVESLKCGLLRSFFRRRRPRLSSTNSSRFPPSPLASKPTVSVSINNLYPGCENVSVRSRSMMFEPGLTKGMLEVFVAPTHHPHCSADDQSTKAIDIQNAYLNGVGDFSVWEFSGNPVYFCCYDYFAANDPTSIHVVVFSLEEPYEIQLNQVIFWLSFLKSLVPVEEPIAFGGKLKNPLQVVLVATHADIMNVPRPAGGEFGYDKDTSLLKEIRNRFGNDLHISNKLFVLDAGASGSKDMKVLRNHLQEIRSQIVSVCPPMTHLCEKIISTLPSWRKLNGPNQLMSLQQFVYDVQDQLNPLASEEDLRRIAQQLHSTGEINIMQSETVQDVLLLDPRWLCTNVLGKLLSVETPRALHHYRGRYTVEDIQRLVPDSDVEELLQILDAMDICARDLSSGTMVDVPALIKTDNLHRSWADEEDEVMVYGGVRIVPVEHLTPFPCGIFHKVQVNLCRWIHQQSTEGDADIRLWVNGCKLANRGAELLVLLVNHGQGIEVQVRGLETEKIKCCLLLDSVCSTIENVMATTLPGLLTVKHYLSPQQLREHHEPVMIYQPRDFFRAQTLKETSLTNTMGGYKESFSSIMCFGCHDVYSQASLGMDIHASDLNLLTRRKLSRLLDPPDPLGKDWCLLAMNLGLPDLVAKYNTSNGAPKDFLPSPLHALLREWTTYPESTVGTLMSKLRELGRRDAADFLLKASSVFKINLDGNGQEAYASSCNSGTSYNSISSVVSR
Experimental: as §1

[3] = target: T3, PBK (Homo sapiens, UniProt Q96KB5)
T3 construct: purchased ProQinase (Freiburg, Germany)
T3 sequence (Q96KB5 1-322): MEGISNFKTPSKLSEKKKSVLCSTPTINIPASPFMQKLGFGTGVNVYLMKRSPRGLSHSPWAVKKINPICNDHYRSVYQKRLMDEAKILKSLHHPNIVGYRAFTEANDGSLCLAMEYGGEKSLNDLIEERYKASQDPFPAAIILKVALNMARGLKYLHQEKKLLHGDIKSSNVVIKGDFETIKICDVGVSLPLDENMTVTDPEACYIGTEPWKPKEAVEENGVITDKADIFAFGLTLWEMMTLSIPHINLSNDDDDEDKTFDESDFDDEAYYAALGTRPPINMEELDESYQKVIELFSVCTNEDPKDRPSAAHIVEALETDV
Experimental: as §1

[4] = target: T4, EPHA2 (Homo sapiens, UniProt P29317)
T4 construct: purchased ProQinase (Freiburg, Germany)
Experimental: as §1

[5] = target: T5, MLK4 (Homo sapiens, UniProt Q5TCX8)
T5 construct: purchased ProQinase (Freiburg, Germany)
T5 sequence (Q5TCX8 whole entry): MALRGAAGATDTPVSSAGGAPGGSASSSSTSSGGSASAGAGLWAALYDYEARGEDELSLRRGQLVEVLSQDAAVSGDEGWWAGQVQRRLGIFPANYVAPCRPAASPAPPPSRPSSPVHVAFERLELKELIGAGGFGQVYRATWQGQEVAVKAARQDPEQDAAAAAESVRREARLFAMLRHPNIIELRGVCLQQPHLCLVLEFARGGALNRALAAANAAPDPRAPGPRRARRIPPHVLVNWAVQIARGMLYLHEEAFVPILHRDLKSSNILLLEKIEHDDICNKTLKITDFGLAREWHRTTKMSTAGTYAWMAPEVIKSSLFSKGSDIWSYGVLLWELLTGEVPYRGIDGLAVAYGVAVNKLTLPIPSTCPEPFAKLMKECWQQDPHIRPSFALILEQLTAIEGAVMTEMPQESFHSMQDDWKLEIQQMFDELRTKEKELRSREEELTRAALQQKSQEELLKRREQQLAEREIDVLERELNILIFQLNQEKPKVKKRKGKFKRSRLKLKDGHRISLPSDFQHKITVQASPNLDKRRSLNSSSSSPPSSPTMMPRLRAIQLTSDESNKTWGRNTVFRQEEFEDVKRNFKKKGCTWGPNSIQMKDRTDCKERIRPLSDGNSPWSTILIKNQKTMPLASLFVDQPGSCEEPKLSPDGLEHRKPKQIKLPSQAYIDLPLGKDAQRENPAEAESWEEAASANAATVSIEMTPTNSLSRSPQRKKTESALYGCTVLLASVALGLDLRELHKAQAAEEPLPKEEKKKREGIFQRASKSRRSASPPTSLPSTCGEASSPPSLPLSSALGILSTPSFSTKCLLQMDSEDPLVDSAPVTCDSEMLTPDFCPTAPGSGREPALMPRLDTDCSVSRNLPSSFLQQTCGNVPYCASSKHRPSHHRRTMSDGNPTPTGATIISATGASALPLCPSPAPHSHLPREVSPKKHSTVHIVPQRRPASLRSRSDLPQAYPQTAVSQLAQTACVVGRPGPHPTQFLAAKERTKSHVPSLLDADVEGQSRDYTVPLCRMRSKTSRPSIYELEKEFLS
Experimental: as §1

[6] = target: T6, MST1 (Homo sapiens, UniProt Q13043)
T6 construct: purchased ProQinase (Freiburg, Germany)
T6 sequence (Q13043 1-487): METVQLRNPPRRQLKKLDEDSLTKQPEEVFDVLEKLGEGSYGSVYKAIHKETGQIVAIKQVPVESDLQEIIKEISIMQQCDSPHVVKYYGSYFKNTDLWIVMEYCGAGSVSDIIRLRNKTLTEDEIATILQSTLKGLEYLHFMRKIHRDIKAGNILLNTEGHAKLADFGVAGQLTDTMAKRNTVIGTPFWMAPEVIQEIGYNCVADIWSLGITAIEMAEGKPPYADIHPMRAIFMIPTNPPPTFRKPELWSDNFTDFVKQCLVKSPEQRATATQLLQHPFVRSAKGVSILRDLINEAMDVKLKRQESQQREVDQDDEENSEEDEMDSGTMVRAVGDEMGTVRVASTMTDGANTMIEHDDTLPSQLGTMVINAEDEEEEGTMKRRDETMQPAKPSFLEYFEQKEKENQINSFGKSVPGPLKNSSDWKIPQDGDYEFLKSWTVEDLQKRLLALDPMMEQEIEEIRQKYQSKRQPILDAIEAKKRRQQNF
Experimental: as §1

[7] = target: T7, FES (Homo sapiens, UniProt P07332)
T7 construct: purchased ProQinase (Freiburg, Germany)
T7 sequence (P07332 whole entry): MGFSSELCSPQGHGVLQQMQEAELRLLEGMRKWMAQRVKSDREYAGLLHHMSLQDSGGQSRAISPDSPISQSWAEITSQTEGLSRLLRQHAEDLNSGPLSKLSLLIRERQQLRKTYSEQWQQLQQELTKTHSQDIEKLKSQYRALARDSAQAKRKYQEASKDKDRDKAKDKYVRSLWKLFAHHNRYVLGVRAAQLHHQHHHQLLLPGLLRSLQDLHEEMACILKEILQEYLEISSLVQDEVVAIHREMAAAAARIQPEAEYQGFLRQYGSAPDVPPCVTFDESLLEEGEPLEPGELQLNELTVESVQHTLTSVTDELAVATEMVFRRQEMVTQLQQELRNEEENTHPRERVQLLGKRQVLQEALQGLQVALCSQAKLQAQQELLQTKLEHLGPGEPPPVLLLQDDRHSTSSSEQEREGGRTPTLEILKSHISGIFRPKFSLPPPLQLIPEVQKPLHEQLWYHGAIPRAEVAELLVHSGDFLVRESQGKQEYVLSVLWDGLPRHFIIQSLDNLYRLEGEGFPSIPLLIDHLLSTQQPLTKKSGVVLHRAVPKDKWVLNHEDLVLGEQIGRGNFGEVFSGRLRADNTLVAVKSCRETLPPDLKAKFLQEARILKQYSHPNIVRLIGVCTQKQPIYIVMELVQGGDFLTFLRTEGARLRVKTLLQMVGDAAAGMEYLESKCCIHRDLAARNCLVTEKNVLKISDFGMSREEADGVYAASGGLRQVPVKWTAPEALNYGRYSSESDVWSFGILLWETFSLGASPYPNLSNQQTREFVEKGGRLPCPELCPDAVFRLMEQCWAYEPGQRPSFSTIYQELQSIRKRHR
Experimental: as §1

[8] = target: T8, MATK (Homo sapiens, UniProt P42679)
T8 construct: purchased ProQinase (Freiburg, Germany)
T8 sequence (P42679 1-507): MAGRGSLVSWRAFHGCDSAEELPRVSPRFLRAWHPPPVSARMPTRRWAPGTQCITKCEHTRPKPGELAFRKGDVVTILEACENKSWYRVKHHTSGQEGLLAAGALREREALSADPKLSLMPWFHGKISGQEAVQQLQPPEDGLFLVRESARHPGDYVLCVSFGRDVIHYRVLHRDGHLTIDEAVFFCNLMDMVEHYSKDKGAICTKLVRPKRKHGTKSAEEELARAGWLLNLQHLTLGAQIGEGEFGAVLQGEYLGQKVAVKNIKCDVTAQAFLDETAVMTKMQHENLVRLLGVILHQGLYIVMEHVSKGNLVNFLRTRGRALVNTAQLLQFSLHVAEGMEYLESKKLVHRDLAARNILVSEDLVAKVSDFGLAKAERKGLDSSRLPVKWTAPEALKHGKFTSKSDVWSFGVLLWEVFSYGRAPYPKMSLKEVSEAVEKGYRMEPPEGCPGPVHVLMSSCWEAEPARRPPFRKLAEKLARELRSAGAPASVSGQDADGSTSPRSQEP
Experimental: as §1

[9] = target: T9, CDK4/CycD3 (Homo sapiens, UniProt P11802)
T9 construct: purchased ProQinase (Freiburg, Germany)
T9 sequence (P11802 whole entry): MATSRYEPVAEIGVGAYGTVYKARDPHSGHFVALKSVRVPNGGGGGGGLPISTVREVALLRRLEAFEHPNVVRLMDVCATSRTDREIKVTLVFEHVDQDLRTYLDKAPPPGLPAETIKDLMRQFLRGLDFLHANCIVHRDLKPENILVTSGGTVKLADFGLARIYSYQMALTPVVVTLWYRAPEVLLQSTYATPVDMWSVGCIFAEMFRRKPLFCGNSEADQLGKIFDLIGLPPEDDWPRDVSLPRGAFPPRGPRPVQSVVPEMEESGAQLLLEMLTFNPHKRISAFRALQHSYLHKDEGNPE
T9 sequence (P30281 whole entry partner): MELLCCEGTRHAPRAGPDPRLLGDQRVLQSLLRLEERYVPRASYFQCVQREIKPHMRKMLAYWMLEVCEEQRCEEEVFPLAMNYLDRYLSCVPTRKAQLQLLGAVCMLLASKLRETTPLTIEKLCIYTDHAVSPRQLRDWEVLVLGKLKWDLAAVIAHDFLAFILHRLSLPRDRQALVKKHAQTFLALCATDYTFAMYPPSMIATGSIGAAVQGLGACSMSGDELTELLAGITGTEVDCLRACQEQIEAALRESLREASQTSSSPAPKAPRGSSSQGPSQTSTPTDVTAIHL
Experimental: as §1

[10] = target: T10, MUSK (Homo sapiens, UniProt O15146)
T10 construct: purchased ProQinase (Freiburg, Germany)
T10 sequence (O15146 24-869): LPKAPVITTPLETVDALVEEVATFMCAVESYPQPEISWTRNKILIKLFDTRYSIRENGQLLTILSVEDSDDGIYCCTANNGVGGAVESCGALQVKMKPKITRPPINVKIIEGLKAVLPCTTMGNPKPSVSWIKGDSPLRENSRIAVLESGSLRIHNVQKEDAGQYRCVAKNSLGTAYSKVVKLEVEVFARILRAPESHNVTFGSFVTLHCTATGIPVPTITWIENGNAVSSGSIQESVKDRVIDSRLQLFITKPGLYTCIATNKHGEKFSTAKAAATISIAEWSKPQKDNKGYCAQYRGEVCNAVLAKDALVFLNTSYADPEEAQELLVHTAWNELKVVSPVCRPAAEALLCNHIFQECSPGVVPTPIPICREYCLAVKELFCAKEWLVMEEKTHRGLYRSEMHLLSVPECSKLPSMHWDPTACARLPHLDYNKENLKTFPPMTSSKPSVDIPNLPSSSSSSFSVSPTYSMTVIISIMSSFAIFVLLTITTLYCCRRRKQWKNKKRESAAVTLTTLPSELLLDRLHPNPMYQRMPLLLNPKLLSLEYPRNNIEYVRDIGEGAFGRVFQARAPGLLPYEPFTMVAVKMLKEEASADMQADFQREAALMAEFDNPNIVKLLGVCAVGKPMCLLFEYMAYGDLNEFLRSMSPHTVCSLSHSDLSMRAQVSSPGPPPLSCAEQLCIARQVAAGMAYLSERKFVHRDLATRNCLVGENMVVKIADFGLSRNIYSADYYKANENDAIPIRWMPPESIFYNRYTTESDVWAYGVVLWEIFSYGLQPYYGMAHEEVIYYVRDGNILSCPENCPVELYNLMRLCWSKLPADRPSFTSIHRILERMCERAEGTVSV
Experimental: as §1

T1 sequence (P09769 whole entry): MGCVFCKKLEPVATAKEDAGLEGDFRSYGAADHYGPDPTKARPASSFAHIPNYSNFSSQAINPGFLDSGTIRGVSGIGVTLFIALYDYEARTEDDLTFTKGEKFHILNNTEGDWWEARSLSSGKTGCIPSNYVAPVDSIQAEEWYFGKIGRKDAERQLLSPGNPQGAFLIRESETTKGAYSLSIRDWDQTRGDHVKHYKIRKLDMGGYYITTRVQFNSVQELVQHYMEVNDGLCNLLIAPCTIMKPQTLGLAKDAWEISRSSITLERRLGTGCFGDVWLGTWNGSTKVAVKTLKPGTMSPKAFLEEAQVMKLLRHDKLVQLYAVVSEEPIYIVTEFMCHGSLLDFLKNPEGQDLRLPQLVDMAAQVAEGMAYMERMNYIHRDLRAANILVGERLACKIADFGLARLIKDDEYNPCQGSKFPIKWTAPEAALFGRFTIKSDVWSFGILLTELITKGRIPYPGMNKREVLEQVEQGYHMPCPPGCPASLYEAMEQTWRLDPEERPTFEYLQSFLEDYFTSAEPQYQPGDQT

| SMILES | Residual activity ([1]; 1.0E-05 M) | Residual activity ([1]; 1.0E-06 M) | Residual activity ([2]; 1.0E-05 M) | Residual activity ([2]; 1.0E-06 M) | Residual activity ([3]; 1.0E-05 M) | Residual activity ([3]; 1.0E-06 M) | Residual activity ([4]; 1.0E-05 M) | Residual activity ([4]; 1.0E-06 M) | Residual activity ([5]; 1.0E-05 M) | Residual activity ([5]; 1.0E-06 M) | Residual activity ([6]; 1.0E-05 M) | Residual activity ([6]; 1.0E-06 M) | Residual activity ([7]; 1.0E-05 M) | Residual activity ([7]; 1.0E-06 M) | Residual activity ([8]; 1.0E-05 M) | Residual activity ([8]; 1.0E-06 M) | Residual activity ([9]; 1.0E-05 M) | Residual activity ([9]; 1.0E-06 M) | Residual activity ([10]; 1.0E-05 M) | Residual activity ([10]; 1.0E-06 M) |
| --- | --- | --- | --- | --- | --- | --- | --- | --- | --- | --- | --- | --- | --- | --- | --- | --- | --- | --- | --- | --- |
| O=C(Cc1ccccc1)Nc1ccc(F)c(Nc2ccc3c(c2)CCCCC3=O)c1 [Compound 100] | 82 % of control | 108 % of control | 110 % of control | 127 % of control | 93 % of control | 128 % of control | 94 % of control | 116 % of control | 102 % of control | 94 % of control | 92 % of control | 102 % of control | 67 % of control | 81 % of control | 86 % of control | 101 % of control | 89 % of control | 93 % of control | 93 % of control | 98 % of control |
| O=C(Nc1ccc(F)c(Nc2ccc3c(c2)CCCCC3=O)c1)c1cccc(F)c1 [Compound 109] | 84 % of control | 105 % of control | 102 % of control | 109 % of control | 106 % of control | 95 % of control | 107 % of control | 105 % of control | 99 % of control | 99 % of control | 98 % of control | 103 % of control | 90 % of control | 79 % of control | 95 % of control | 94 % of control | 89 % of control | 94 % of control | 83 % of control | 97 % of control |
